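Exposure lasted 48 hours, with cells grown in 96-well plates and compounds tested at five concentrations. Here, GI50 denotes the concentration required for 50% inhibition of growth.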 Activity calls are given as the source filed them. Rule as the data show it: active = GI50 up to about 1.1 µM and inactive = higher.
Key:
Test in all cases: DTP human tumour cell line panel, 48 h
786-0 = tested on: 786-0
PC-3 = tested on: PC-3
COLO 205 = tested on: COLO 205
RXF 393 = tested on: RXF 393
RPMI-8226 = tested on: RPMI-8226
T47D = tested on: T47D
NCI-H23 = tested on: NCI-H23
SR = tested on: SR
A498 = tested on: A498
MCF7 = tested on: MCF7
ACHN = tested on: ACHN
IGROV-1 = tested on: IGROV-1
NCI-H522 = tested on: NCI-H522
SK-MEL-5 = tested on: SK-MEL-5
DU-145 = tested on: DU-145
OVCAR-8 = tested on: OVCAR-8
SK-MEL-2 = tested on: SK-MEL-2
CAKI-1 = tested on: CAKI-1
MDA-N = tested on: MDA-N
NCI-H460 = tested on: NCI-H460

SMILES | GI50 (786-0) | GI50 (PC-3) | GI50 (COLO 205) | GI50 (RXF 393) | GI50 (RPMI-8226) | GI50 (T47D) | GI50 (NCI-H23) | GI50 (SR) | GI50 (A498) | GI50 (MCF7) | GI50 (ACHN) | GI50 (IGROV-1) | GI50 (NCI-H522) | GI50 (SK-MEL-5) | GI50 (DU-145) | GI50 (OVCAR-8) | GI50 (SK-MEL-2) | GI50 (CAKI-1) | GI50 (MDA-N) | GI50 (NCI-H460)
COc1cc(-c2cn(S(=O)(=O)c3ccc(C)cc3)c3ccccc23)nc(-c2cn(S(=O)(=O)c3ccc(C)cc3)c3ccccc23)n1 | 1.35 µM (inactive) | 0.773 µM (active) | 0.745 µM (active) | 0.372 µM (active) | 0.375 µM (active) | > 100 µM (inactive) | 0.245 µM (active) | 0.216 µM (active) | 1.32 µM (inactive) | 0.395 µM (active) | 0.927 µM (active) | 0.728 µM (active) | 0.239 µM (active) | 0.566 µM (active) | 0.625 µM (active) | 0.94 µM (active) | 0.984 µM (active) | 1.3 µM (inactive) | 0.441 µM (active) | 0.388 µM (active)
NCC1OC(n2cnc3c(=O)[nH]c(N)nc32)C(O)C1O (stereo not given) | > 100 µM (inactive) | > 100 µM (inactive) | > 100 µM (inactive) | > 100 µM (inactive) | 2.13 µM (inactive) | 97.1 µM (inactive) | > 100 µM (inactive) | < 0.01 µM (active) | > 100 µM (inactive) | 95.5 µM (inactive) | > 100 µM (inactive) | > 100 µM (inactive) | > 100 µM (inactive) | > 100 µM (inactive) | > 100 µM (inactive) | > 100 µM (inactive) | > 100 µM (inactive) | > 100 µM (inactive) | > 100 µM (inactive) | > 100 µM (inactive)
CCOC(=O)Cn1nnc2cc(Nc3nc4ccccc4nc3C(=O)OCC)ccc21 | 67 µM (inactive) | > 100 µM (inactive) | > 100 µM (inactive) | 18.6 µM (inactive) | > 100 µM (inactive) | > 100 µM (inactive) | > 100 µM (inactive) | > 100 µM (inactive) | 46.1 µM (inactive) | > 100 µM (inactive) | > 100 µM (inactive) | > 100 µM (inactive) | > 100 µM (inactive) | > 100 µM (inactive) | > 100 µM (inactive) | 49.7 µM (inactive) | 78.2 µM (inactive) | > 100 µM (inactive) | > 100 µM (inactive) | > 100 µM (inactive)
ClCc1nn(-c2ccccc2)c(CCl)c1CCl | 2.56 µM (inactive) | 5.71 µM (inactive) | 3.88 µM (inactive) | 4.82 µM (inactive) | 2.52 µM (inactive) | 3.55 µM (inactive) | 4.46 µM (inactive) | 0.813 µM (active) | 12 µM (inactive) | 2.38 µM (inactive) | 2.96 µM (inactive) | 3.44 µM (inactive) | 4.25 µM (inactive) | 2.68 µM (inactive) | 4.68 µM (inactive) | 2.35 µM (inactive) | 5.71 µM (inactive) | 7.31 µM (inactive) | 2.88 µM (inactive) | 2.66 µM (inactive)
